Source: PubChem BioAssay (NCI)
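In this assay, cells in 96-well plates receive the compound at five concentrations for 48 hours. Endpoints are linearly interpolated between the surrounding concentrations. Here, GI50 denotes the concentration required for 50% inhibition of growth. TGI is the concentration that stops growth completely.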

What was measured:
Test in all cases: NCI tumour cell line growth inhibition, 48 h
KM20L2 colon = tested on: KM20L2 colon
DLD-1 colon = tested on: DLD-1 colon
NCI-H460 lung = tested on: NCI-H460 lung
DMS 273 small cell lung = tested on: DMS 273 small cell lung
K-562 leukemia = tested on: K-562 leukemia
IGROV1 ovarian = tested on: IGROV1 ovarian
HL-60(TB) leukemia = tested on: HL-60(TB) leukemia
COLO 205 colon = tested on: COLO 205 colon
BT-549 breast = tested on: BT-549 breast
T-47D breast = tested on: T-47D breast

SMILES | TGI (KM20L2 colon) [µM] | TGI (DLD-1 colon) [µM] | TGI (NCI-H460 lung) [µM] | TGI (DMS 273 small cell lung) [µM] | TGI (K-562 leukemia) [µM] | TGI (IGROV1 ovarian) [µM] | TGI (HL-60(TB) leukemia) [µM] | TGI (COLO 205 colon) [µM] | GI50 (KM20L2 colon) [µM] | GI50 (DLD-1 colon) [µM] | GI50 (NCI-H460 lung) [µM] | GI50 (DMS 273 small cell lung) [µM] | GI50 (K-562 leukemia) [µM] | GI50 (IGROV1 ovarian) [µM] | GI50 (HL-60(TB) leukemia) [µM] | GI50 (COLO 205 colon) [µM] | TGI (BT-549 breast) [µM] | TGI (T-47D breast) [µM]
BrC(/C=N/Nc1nnc(-c2ccccc2)c(-c2ccccc2)n1)C(Br)c1ccccc1 (stereo unspecified) | > 100 | > 100 | > 100 | > 100 | > 100 | > 100 | 79.5 | > 100 | – | – | – | – | – | – | – | – | – | –
CSc1cnc2ccccc2c1Sc1cn(C)c2ccccc2c1=O | > 100 | > 100 | > 100 | > 100 | > 100 | > 100 | > 100 | > 100 | – | – | – | – | – | – | – | – | – | –
CCOc1ccc(/C=C/C(=O)c2sc(NNC(C)=O)nc2C)cc1 | > 100 | > 100 | > 100 | > 100 | > 100 | > 100 | > 100 | > 100 | – | – | – | – | – | – | – | – | – | –
CCc1cccc(CC)c1NC1=CC(=O)C(=O)c2ccccc21 | 48.9 | 49.7 | 48.8 | 41.6 | > 100 | 28.9 | > 100 | > 100 | – | – | – | – | – | – | – | – | – | –
CC1(C)OC2OC(/C=C/[N+](=O)[O-])C3OC(C)(C)OC3C2O1 (stereo unspecified) | 39.6 | 4.05 | 32.4 | 40.4 | 27.5 | > 74.4 | 10.8 | 14.5 | – | – | – | – | – | – | – | – | – | –
CCC[CH2][Sn]1([CH2]CCC)[O]C(=O)c2cccnc2[S]1 | 21 | 14.5 | 23.6 | 13.7 | 5.48 | 23.5 | 3.31 | 9.33 | 7.72 | 3.94 | 11.4 | 3.38 | 1.65 | 11.2 | 1.42 | 3.34 | – | –
C/C(=N\NC(N)=S)c1ccc(Oc2ccccc2)cc1 | 26.5 | 16.9 | 42.6 | 20.7 | 21.5 | 12.5 | 23 | 25.7 | – | – | – | – | – | – | – | – | – | –
C=CC(C)(C)[C@@]12CC3C(=O)N[C@@H](Cc4ccccc4)C(=O)N3[C@@H]1N(C(C)=O)c1ccccc12 (stereo partly specified) | > 100 | > 100 | > 100 | > 100 | > 100 | > 100 | 62.1 | > 100 | – | – | – | – | – | – | – | – | – | –
COC1=C(OC)C(=O)c2cc(C)c(=O)c(C)cc2C1=O | 40 | 41.4 | 48.5 | 45.5 | > 24 | 33.2 | 8.9 | 34.7 | – | – | – | – | – | – | – | – | 28.5 | > 55.4
N#Cc1cccc(C2SCc3nc4ccccc4n32)c1 (stereo unspecified) | > 100 | > 100 | > 100 | > 100 | > 100 | > 100 | > 100 | > 100 | – | – | – | – | – | – | – | – | – | –
O=C(Nc1cc(Cl)ccc1Cl)c1cc2ccccc2oc1=O | > 100 | > 100 | > 100 | > 100 | > 100 | > 100 | > 100 | > 100 | – | – | – | – | – | – | – | – | – | –
Cc1cc(Br)ccc1N=NC1C(=O)ON=C1c1ccccc1 (stereo unspecified) | > 100 | > 100 | > 100 | > 100 | > 100 | > 100 | > 100 | 29.6 | – | – | – | – | – | – | – | – | – | –
